Common to all, as to experiment: DTP human tumour cell line panel, 48 h
Assay [1] has as its system HOP-62 NSCLC.
For assay [2], the system named is M14 melanoma.
The test system of assay [3] is NCI-H23 lung.
Assay [4] relates to HCT-116 colon.
Assay [5] has as its system KM12 colon.
Assay [6] has as its system SF-539 CNS.
Assay [7] deals with SK-OV-3 ovarian.
For assay [8], the system named is ACHN renal.
Assay [9] deals with RXF 393 renal.
Assay [10] concerns NCI/ADR-RES ovarian.

SMILES strings stand for the structures.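 In this assay, cells in 96-well plates receive the compound at five concentrations for 48 hours. Endpoints are linearly interpolated between the surrounding concentrations. GI50 = concentration required for 50% inhibition of growth. TGI is the concentration that stops growth completely.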 A value given as a limit tells only on which side of the number the result lay.

`Cc1c(-c2ccccc2)c(=O)oc2ccc(Cl)cc12`: the TGI in [1], in assay [2], in assay [3], in assay [4], in assay [5] and in assay [6] was more than 100 µM in each case. In addition, in [7], the TGI is more than 100 µM.
With `CCSC(SCC)c1cc2c(cc1Br)OCO2`, the TGI in assay [1] was more than 100 µM; in assay [2] it was 56.2 µM; in [8], more than 100 µM; in [3], 88.9 µM; in assay [4] it was 82.6 µM; in assay [5] it was more than 100 µM. Moreover, the figures for the TGI in assay [6], in [9] and in assay [7] were 35.5 µM, 89.3 µM and 88.6 µM, respectively.
Consider `O=C(NCCc1ccccc1)C(c1ccccc1)(c1ccccc1)c1ccccc1`, for which the GI50 in [1] was 7.1 µM; in assay [10], 2.23 µM; in assay [8], 3.13 µM; in assay [4], 1.95 µM; in assay [5], 3.19 µM; in assay [7], 26 µM. In addition, the concentration for total growth inhibition (TGI) in assay [1] was more than 100 µM; in assay [10] it was 6.59 µM; in [8] it was 9.35 µM; in assay [4], more than 100 µM; in assay [5] it was 11.3 µM; in [7] it was more than 100 µM.
For the molecule `CNC1C(O)C(OC2C(N)CC(N)C(OC3OC(CN)=CCC3N)C2O)OCC1(C)O` (configuration not stated), the concentration for total growth inhibition (TGI) in assay [1], in [2], in [10], in assay [8], in [3] and in assay [4] was more than 100 µM throughout. Also, the concentration for total growth inhibition (TGI) in [5], in assay [6] and in [7] was more than 100 µM each time.
Turning to `CCN(CC)c1ccc(C2CC(c3cc(OC)c(OC)c(OC)c3)=NN2)cc1` (configuration not stated), the GI50 in assay [1] is 0.456 µM; in assay [2], 1.16 µM; in assay [10], 0.44 µM; in assay [8], 1.55 µM; in [3] it was 2.69 µM; in assay [4], 0.744 µM. The concentration for 50% growth inhibition (GI50) in assay [5] was 0.372 µM; in assay [6], 0.29 µM; in [7], 0.537 µM. Moreover, the TGI in assay [1] was more than 21.1 µM; in assay [2] it was more than 100 µM; in assay [10], more than 100 µM; in assay [8], more than 100 µM; in assay [3], more than 100 µM; in assay [4], more than 100 µM. Besides, the TGI in assay [5] is more than 100 µM; in assay [6] it was 2.18 µM; in [7], more than 100 µM.
For `O=C1OC(c2ccccc2)=N/C1=C\c1ccc2ccccc2c1`, the TGI in assay [2], in assay [8], in assay [3], in assay [4], in [5] and in assay [6] was more than 100 µM in each case. Also, the TGI in assay [9] and in assay [7] was more than 100 µM throughout.
`C=CCCOC(=O)CO[N+](=O)[O-]`: the total growth inhibition concentration (TGI) in assay [1], in [2], in assay [8], in assay [3], in assay [4] and in [5] was more than 100 µM throughout. The TGI in assay [6], in assay [9] and in assay [7] was more than 100 µM in each case.
As to `CSc1nc(NC2OCC(OC(C)=O)C(OC(C)=O)C2OC(C)=O)c(N=C(C)C(C)=O)c(=O)n1C` (configuration not stated), the TGI in assay [1], in assay [2], in assay [8], in [3], in assay [4] and in assay [5] was more than 100 µM throughout. The TGI in [6], in assay [9] and in assay [7] was more than 100 µM each time.
Regarding `C#Cc1c(C)c(/C=C/C(C)=C/C=C/C(C)=C/C(=O)OC)n(C)c1C`, the TGI in assay [1], in assay [2], in assay [8], in assay [3], in [4] and in assay [5] was more than 100 µM throughout. The concentration for total growth inhibition (TGI) in assay [6] and in assay [7] was more than 100 µM in each case.
`COc1cc(Br)c(CC2(C#N)c3ccccc3C3C(N2C(=O)c2ccccc2)C3(Cl)Cl)cc1OC` (configuration not stated): the TGI in assay [2], in assay [8], in [3], in assay [4], in assay [5] and in assay [6] was more than 65.5 µM in each case. Also, the TGI in assay [9] and in assay [7] was more than 65.5 µM in each case.
`COc1cc2c(c(OC)c1O)-c1ccc(OC)c(=O)cc1[C@@H](NC(=O)C(F)(F)F)CC2`: the TGI is 2.4 µM in [1]; more than 100 µM in assay [2]; more than 100 µM in assay [10]; more than 100 µM in assay [8]; more than 40.8 µM in assay [4]; more than 100 µM in [5]. Also, the concentration for total growth inhibition (TGI) in assay [6] is 0.087 µM; in assay [7] it was more than 100 µM.
With `CCOC(=O)Cc1nc2ccccc2s1`, the TGI in assay [1] is 52 µM; in assay [2], 31 µM; in [8], 32.1 µM; in [3], 29.3 µM; in assay [4] it was 39 µM; in assay [5] it was more than 10 µM. In addition, the values for the TGI in assay [6], in [9] and in [7] were 36.6 µM, 35.3 µM and more than 100 µM, respectively.
In the case of `Cc1nnc(N=Nc2c(O)[nH]c3c(Cl)cc(Cl)cc23)n1N`, the concentration for total growth inhibition (TGI) in [1], in assay [2], in assay [8], in [3], in assay [4] and in [5] was more than 100 µM in each case. Further, the TGI in assay [6], in [9] and in assay [7] was more than 100 µM each time.
`O=C(Cc1nc2ccccc2s1)Nc1ccc(Cl)cc1`: the TGI in assay [1], in assay [2], in [8], in assay [3], in [4] and in [5] was more than 100 µM each time. The TGI in assay [6], in [9] and in assay [7] was more than 100 µM in each case.

The TGI is the concentration at which net growth stops. Low readings indicate more potent growth arrest, high ones less potent growth arrest. In general, GI50 refers to the concentration at which growth is held to half of that of the control.

The values are drawn from PubChem BioAssay (NCI).
